Assay results: US8575188B2 (priority 2009, dated 2013)
Like-named read-outs stand apart in the source and are kept apart here.

How the values were obtained:
[1] = system: human non small cell lung cancer cell line H460; assay: Antiproliferation (cytotoxicity) assay, 72 hrs under air, Alamar Blue; format: cell-based
[2] = system: human non small cell lung cancer H-460; assay: Xenograft model, subcutaneous, tumor growth inhibition and body weight loss
Description: The first three models were produced by subcutaneous implantation of the appropriate number of cells into the flank of the animals. When tumor size was approximately 150 mm^3, animals were randomized into groups of 10 mice each for dosing. One arm was dosed with only vehicle and the results used for the efficacy calculations. […] TGI=(1−T/C) %. T/C ratio was calculated as T/C=(Tn−Ti)/(Cn−Ci), where Tn is tumor volume in treatment group on Day n, and Ti is the initial tumor volume in the treatment group. Cn is the tumor volume of the vehicle group on the last day of measurement. Ci is the initial tumor volume in the vehicle control group. Day n is the last measurement taken when all the animals in the vehicle group were not yet euthanized. Animals were euthanized when tumor volumes grew larger than 2000 mm^3.

[3] = system: BCRP, which over expressed the breast cancer resistance protein; assay: Efflux pump drug resistance, antiproliferation assay, BCRP over expressing line
Description: (§1) The compounds were screened for cytotoxicity using human non small cell lung cancer cell line H460. […]
(§2) Cellular drug resistance was determined using the antiproliferation assay described above.

[4] = In vivo pharmacokinetics, oral gavage; details: CD-mice, oral gavage
Description: The data normalized to a 50 mg/kg dose are shown below (compounds were dosed at either 25 or 50 mg/kg).

[5] = system: DX5, which over expresses the MDR 1 efflux pump; assay: Efflux pump drug resistance, antiproliferation assay, MDR 1 over expressing line; format: cell-based; details: MDR1, 72 h, air, 3 days; read-out: Air 3d DX5 prol. IC50
Description: as §1, §2

pcDNA = assay: Efflux pump drug resistance, antiproliferation assay, parent line; format: cell-based; details: 72 h, air, 3 days; read-out: Air 3d pcDNA prol. IC50
Description: as §1, §2

[6] = system: Messa ovarian carcinoma cell line; assay: as above; format: cell-based; details: Homo sapiens, MES-SA, 72 h, air, 3 days; read-out: Air 3d MESSA prol. IC50
Description: […] Cells were treated with test compounds at various concentrations under air for 72 hrs, and then cell viability and proliferation were assessed by Alamar Blue staining.
as §2

[7] = Homo sapiens, NCI-H460, H460, inhibition of proliferation, 72 hrs under air, read-out: IC50

Structure (SMILES) | IC50 [1, 7] [nM] | also measured
CC[C@@]1(O)C(=O)OCc2c1c(N)c1n(c2=O)Cc2c-1nc1ccccc1c2CN [TH1769] | 330 | –
CC[C@@]1(O)C(=O)OCc2c1c(N)c1n(c2=O)Cc2c-1nc1ccccc1c2/C=N/N(CCO)C(=O)C(C)C [TH1796] | 12 | –
CC[C@@]1(O)C(=O)OCc2c1c([N+](=O)[O-])c1n(c2=O)Cc2c-1nc1ccccc1c2CO[N+](=O)[O-] [TH1598] | – | IC50 ([1]; Homo sapiens, NCI-H460, 72 h): 89 nM
CC[C@@]1(O)C(=O)OCc2c1c([N+](=O)[O-])c1n(c2=O)Cc2c-1nc1ccccc1c2/C=C/C(C)=O [TH1784] | 4900 | –
CC[C@@]1(O)C(=O)OCc2c1c([N+](=O)[O-])c1n(c2=O)Cc2c-1nc1ccccc1c2/C=N/OCCN(C)C [TH1522] | > 1000 | –
CC[C@@]1(O)C(=O)OCc2c1c([N+](=O)[O-])c1n(c2=O)Cc2c-1nc1ccccc1c2/C=N/N(CCO)C(=O)C(C)(C)C [TH1791] | 4000 | –
CC[C@@]1(O)C(=O)OCc2c1c(N)c1n(c2=O)Cc2c-1nc1ccccc1c2/C=N/N(CCO)C(=O)c1ccccc1 [TH1800] | 220 | –
CC[C@@]1(O)C(=O)OCc2c1c([N+](=O)[O-])c1n(c2=O)Cc2c-1nc1ccccc1c2/C=N/NCCO [TH1768] | 6600 | –
CCOC(=O)/C=C/c1c2c(nc3ccccc13)-c1c(N)c3c(c(=O)n1C2)COC(=O)[C@]3(O)CC [TH1789] | 31 | –
CC[C@@]1(O)C(=O)OCc2c1c(N)c1n(c2=O)Cc2c-1nc1ccccc1c2/C=N/N1CCOCOC1 [TH1816] | 23 | –
CCOC(=O)/C=C/c1c2c(nc3ccccc13)-c1c([N+](=O)[O-])c3c(c(=O)n1C2)COC(=O)[C@]3(O)CC [TH1781] | 28000 | –
CC[C@@]1(O)C(=O)OCc2c1c([N+](=O)[O-])c1n(c2=O)Cc2c-1nc1ccccc1c2/C=N/N(CCO)C(=O)c1ccccc1 [TH1797] | 40000 | –
C=CCO/N=C/c1c2c(nc3ccccc13)-c1c([N+](=O)[O-])c3c(c(=O)n1C2)COC(=O)[C@]3(O)CC [TH1771] | > 10000 | –
CC[C@@]1(O)C(=O)OCc2c1c(N)c1n(c2=O)Cc2c-1nc1ccccc1c2/C=N/c1ccc(C(C)(C)C)cc1 [TH1809] | 1400 | –
CC[C@@]1(O)C(=O)OCc2c1c(N)c1n(c2=O)Cc2c-1nc1ccccc1c2/C=C/C(=O)OC(C)(C)C [TH1811] | 14 | –
CC[C@@]1(O)C(=O)OCc2c1c([N+](=O)[O-])c1n(c2=O)Cc2c-1nc1ccccc1c2CC(C)(C)C [TH1644] | 800 | –
CC[C@@]1(O)C(=O)OCc2c1c(N)c1n(c2=O)Cc2c-1nc1ccccc1c2CC[Si](C)(C)O [TH1628] | 62 | –
CC[C@@]1(O)C(=O)OCc2c1c(N)c1n(c2=O)Cc2c-1nc1ccccc1c2C(OC)OC [TH1785] | 39 | –
CC[C@@]1(O)C(=O)OCc2c1c(N)c1n(c2=O)Cc2c-1nc1ccccc1c2CO [TH1599] | 4.3 | –
CC[C@@]1(O)C(=O)OCc2c1c(N)c1n(c2=O)Cc2c-1nc1ccccc1c2/C=N/N(CCO)C(C)=O [TH1783] | 460 | –
CC[C@@]1(O)C(=O)OCc2c1c([N+](=O)[O-])c1n(c2=O)Cc2c-1nc1cccc([N+](=O)[O-])c1c2/C=N/OCCN1CCOCC1 [TH1523] | 830 | –
CC[C@@]1(O)C(=O)OCc2c1c(N)c1n(c2=O)Cc2c-1nc1ccccc1c2C#N [TH1801] | 23 | –
CC[C@@]1(O)C(=O)OCc2c1c(N)c1n(c2=O)Cc2c-1nc1ccccc1c2/C=N/N(CCOS(C)(=O)=O)S(C)(=O)=O [TH1799] | 8.1 | –
CC[C@@]1(O)C(=O)OCc2c1c(N)c1n(c2=O)Cc2c-1nc1ccccc1c2/C=N/N1CCOCC1 [TH1777] | 16 | –
CC[C@@]1(O)C(=O)OCc2c1c(N)c1n(c2=O)Cc2c-1nc1ccccc1c2CNCC(C)(C)C [TH1814] | 15 | –
CC[C@@]1(O)C(=O)OCc2c1c([N+](=O)[O-])c1n(c2=O)Cc2c-1nc1ccccc1c2/C=N/c1ccc(C(C)(C)C)cc1 [TH1804] | > 50000 | –
CC[C@@]1(O)C(=O)OCc2c1c(N)c1n(c2=O)Cc2c-1nc1ccccc1c2CC[Si](C)(C)C [TH1631] | 7.4 | –

Structure (SMILES) | IC50 [1, 7] [nM] | also measured
CC[C@@]1(O)C(=O)OCc2c1c([N+](=O)[O-])c1n(c2=O)Cc2c-1nc1ccccc1c2/C=N/c1c(F)c(F)c(O)c(F)c1F [TH1805] | 49000 | –
CC[C@@]1(O)C(=O)OCc2c1c([N+](=O)[O-])c1n(c2=O)Cc2c-1nc1ccccc1c2/C=N/N(CCOS(C)(=O)=O)S(C)(=O)=O [TH1798] | 2500 | –
CC[C@@]1(O)C(=O)OCc2c1c(N)c1n(c2=O)Cc2c-1nc1ccccc1c2/C=N/N1CCN(C)CC1 [TH1775] | 26 | –
CC[C@@]1(O)C(=O)OCc2c1c([N+](=O)[O-])c1n(c2=O)Cc2c-1nc1ccccc1c2/C=N/N1CCOCC1 [TH1767] | 6000 | –
CCOC(=O)CCc1c2c(nc3ccccc13)-c1c(N)c3c(c(=O)n1C2)COC(=O)[C@]3(O)CC [TH1787] | 12 | –
CC[C@@]1(O)C(=O)OCc2c1c([N+](=O)[O-])c1n(c2=O)Cc2c-1nc1ccccc1c2C#N [TH1766] | > 1000 | –
CCCc1c2c(nc3ccccc13)-c1c([N+](=O)[O-])c3c(c(=O)n1C2)COC(=O)[C@]3(O)CC [TH1650] | 685 | TGI (%) ([2]; H460, PO, QD × 5/wk, 2 weeks, 40 mg/Kg): 85%; Max. BWL (%) ([2]; mouse, in vivo, po, 40 mg/kg): 6.7%
CC[C@@]1(O)C(=O)OCc2c1c(N)c1n(c2=O)Cc2c-1nc1ccccc1c2/C=N/NCCO [TH1778] | 270 | –
CC[C@@]1(O)C(=O)OCc2c1c(N)c1n(c2=O)Cc2c-1nc1ccccc1c2CC(C)(C)C [TH1643] | 43 | –
CC[C@@]1(O)C(=O)OCc2c1c([N+](=O)[O-])c1n(c2=O)Cc2c-1nc1ccccc1c2/C=N/N1CCOCOC1 [TH1812] | 2800 | –
CC[C@@]1(O)C(=O)OCc2c1c([N+](=O)[O-])c1n(c2=O)Cc2c-1nc1ccccc1c2/C=N/N(CCO)C(=O)C(C)C [TH1794] | 2300 | –
CC[C@@]1(O)C(=O)OCc2c1c([N+](=O)[O-])c1n(c2=O)Cc2cc3c([N+](=O)[O-])cccc3nc2-1 [TH1385] | > 1000 | –
CC[C@@]1(O)C(=O)OCc2c1c([N+](=O)[O-])c1n(c2=O)Cc2c-1nc1ccccc1c2CC[Si](C)(C)C [TH1626] | > 1000 | –
CC[C@@]1(O)C(=O)OCc2c1c([N+](=O)[O-])c1n(c2=O)Cc2c-1nc1ccccc1c2/C=C/N1CCN(C)CC1 [TH1770] | 9100 | –
CC[C@@]1(O)C(=O)OCc2c1c([N+](=O)[O-])c1n(c2=O)Cc2c-1nc1cccc([N+](=O)[O-])c1c2/C=N/OCCN1CCCCC1 [TH1525] | > 1000 | –
CC[C@@]1(O)C(=O)OCc2c1c([N+](=O)[O-])c1n(c2=O)Cc2c-1nc1ccccc1c2C=O [TH1762, 7-formyl-14-nitro camptothecin] | 7200 | –
CC[C@@]1(O)C(=O)OCc2c1c(N)c1n(c2=O)Cc2c-1nc1ccccc1c2CCC(=O)OC(C)(C)C [TH1790] | 46 | –
CC[C@@]1(O)C(=O)OCc2c1cc1n(c2=O)Cc2cc3ccccc3nc2-1 [Camptothecin, reference compound] | – | ratio BCRP over expressing line versus the parent cell line ([3]; ratio of IC50s, BCRP versus pcDNA): 1.6; IC50 ([1]; H460, inhibition of proliferation, 72 hrs under air, read-out: IC50): 14 nM; half-life [4]: 1.98 h; Cmax ([4]; 5% DMSO, 5% Tween 80 suspension in water, normalized to a 50 mg/kg dose): 374 ng/mL; AUC ([4]; normalized to a 50 mg/kg dose): 58.1 µg·min/mL
CC[C@@]1(O)C(=O)OCc2c1c([N+](=O)[O-])c1n(c2=O)Cc2c-1nc1cccc([N+](=O)[O-])c1c2Br [TH1636] | 6200 | –
CC[C@@]1(O)C(=O)OCc2c1c([N+](=O)[O-])c1n(c2=O)Cc2c-1nc1ccccc1c2/C=N/OCCN1CCCCC1 [TH1524] | > 1000 | –
CC[C@@]1(O)C(=O)OCc2c1c(N)c1n(c2=O)Cc2c-1nc1ccccc1c2/C=N/N(CCO)C(=O)C(C)(C)C [TH1793] | 19 | –
CC[C@@]1(O)C(=O)OCc2c1c([N+](=O)[O-])c1n(c2=O)Cc2c-1nc1ccccc1c2/C=C/C(=O)OC(C)(C)C [TH1786] | 21000 | –
CC[C@@]1(O)C(=O)OCc2c1c([N+](=O)[O-])c1n(c2=O)Cc2c-1nc1ccccc1c2/C=N/OCC1CO1 (some centres unmarked) [TH1776] | 3200 | –
CC[C@@]1(O)C(=O)OCc2c1c([N+](=O)[O-])c1n(c2=O)Cc2c-1nc1ccccc1c2/C=N/N(CCO)C(C)=O [TH1780] | 28000 | –
CC[C@@]1(O)C(=O)OCc2c1c([N+](=O)[O-])c1n(c2=O)Cc2c-1nc1ccccc1c2/C=N/c1ccccc1O [TH1803] | 3600 | –
CC[C@@]1(O)C(=O)OCc2c1c([N+](=O)[O-])c1n(c2=O)Cc2c-1nc1ccccc1c2CC[Si](C)(C)O [TH1627] | > 1000 | –
CC[C@@]1(O)C(=O)OCc2c1c([N+](=O)[O-])c1n(c2=O)Cc2c-1nc1ccccc1c2CO [TH1333] | > 1000 | IC50 ([3]; 72 h, read-out: Air 3d BCRP prol. IC50 nM, air, 3 days): 7800 nM; 3d BCRP/pcDNA ([3]; ratio of IC50s, BCRP over expressing versus parent line, 3 days): 2; IC50 [5]: 34000 nM; IC50 (pcDNA): 3900 nM; IC50 [6]: 15000 nM
